# Reference: PMC7316994, “In Vitro Pharmacological Profile of a New Small Molecule Bradykinin B2 Receptor Antagonist” (Frontiers in Pharmacology, 2020)
# Legend:
# Somatostatin sst1 = Somatostatin sst1 (Homo sapiens, UniProt P30872); assay: radioligand binding (Table S2); conditions: [125I] Tyr11-Somatostatin 14, Human recombinant CHO-S cells
# Oxytocin = target: T1, Oxytocin (Homo sapiens, UniProt P30559); assay: radioligand binding (Table S2); conditions: [3H] Oxytocin, Human recombinant Chem-1 cells
# T1 construct: host or cells: Chem-1 cells
# T1 sequence (P30559 whole entry): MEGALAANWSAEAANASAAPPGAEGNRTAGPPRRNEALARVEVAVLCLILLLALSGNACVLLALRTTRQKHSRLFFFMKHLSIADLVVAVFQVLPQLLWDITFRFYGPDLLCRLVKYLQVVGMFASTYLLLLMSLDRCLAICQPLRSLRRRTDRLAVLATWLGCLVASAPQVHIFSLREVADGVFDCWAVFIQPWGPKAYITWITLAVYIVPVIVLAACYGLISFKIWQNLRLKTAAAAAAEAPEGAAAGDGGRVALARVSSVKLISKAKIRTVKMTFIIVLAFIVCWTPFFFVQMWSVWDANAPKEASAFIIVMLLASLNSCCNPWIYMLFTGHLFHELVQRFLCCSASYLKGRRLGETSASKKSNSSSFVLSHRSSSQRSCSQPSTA
# Prostanoid CRTH2 = target: T2, Prostanoid CRTH2 (Homo sapiens, UniProt Q9Y5Y4); assay: radioligand binding (Table S2); conditions: [3H] Prostaglandin D2, Human recombinant CHO-K1 cells
# T2 construct: host or cells: CHO-K1 cells
# [1] = target: T3, Thyrotropin-releasing hormone TRH1 (Homo sapiens, UniProt P34981); assay: radioligand binding (Table S2); conditions: [3H] Me-TRH, Human recombinant CHO cells
# T3 construct: host or cells: CHO cells
# T3 sequence (P34981 whole entry): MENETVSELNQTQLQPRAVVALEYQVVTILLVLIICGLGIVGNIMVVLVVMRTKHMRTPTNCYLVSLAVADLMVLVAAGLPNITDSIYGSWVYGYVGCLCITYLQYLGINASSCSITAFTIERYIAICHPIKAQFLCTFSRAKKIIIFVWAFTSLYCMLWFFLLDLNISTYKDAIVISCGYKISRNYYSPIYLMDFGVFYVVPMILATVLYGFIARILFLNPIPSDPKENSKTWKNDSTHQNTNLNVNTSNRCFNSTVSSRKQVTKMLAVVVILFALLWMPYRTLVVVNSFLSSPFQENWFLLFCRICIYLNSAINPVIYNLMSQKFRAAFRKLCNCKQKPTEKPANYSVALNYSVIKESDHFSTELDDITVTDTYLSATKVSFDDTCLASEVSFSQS
# Endothelin ETB = target: T4, Endothelin ETB (Homo sapiens, UniProt P24530); assay: radioligand binding (Table S2); conditions: [125I] Endothelin-1, Human recombinant CHO cells
# T4 construct: host or cells: CHO cells
# T4 sequence (P24530 27-442): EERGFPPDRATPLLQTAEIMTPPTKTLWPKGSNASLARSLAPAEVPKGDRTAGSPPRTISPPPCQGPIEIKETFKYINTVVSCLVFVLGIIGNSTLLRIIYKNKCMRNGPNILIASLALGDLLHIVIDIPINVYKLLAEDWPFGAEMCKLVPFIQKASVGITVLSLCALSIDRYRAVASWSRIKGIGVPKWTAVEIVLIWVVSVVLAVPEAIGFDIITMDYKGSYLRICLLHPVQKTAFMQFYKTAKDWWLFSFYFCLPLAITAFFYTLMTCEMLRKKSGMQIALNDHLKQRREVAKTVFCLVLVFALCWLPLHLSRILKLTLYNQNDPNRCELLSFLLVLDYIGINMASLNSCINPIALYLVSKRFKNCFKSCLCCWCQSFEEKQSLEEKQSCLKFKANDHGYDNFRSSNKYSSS
# Dopamine D2S = target: T5, Dopamine D2S (Homo sapiens, UniProt P14416); assay: radioligand binding (Table S2); conditions: [3H] 7-OH-DPAT, Human recombinant HEK-293 cells
# T5 construct: host or cells: HEK-293 cells
# Adrenergic β2 = Adrenergic β2 (Homo sapiens, UniProt P07550); assay: radioligand binding (Table S2); conditions: read-out: % Inhibition @ 10 µM
# Dopamine D4.2 = target: T6, Dopamine D4.2 (Homo sapiens, UniProt P21917, DEL265-296); assay: radioligand binding (Table S2); conditions: [3H] Spiperone, Human recombinant CHO-K1 cells
# T6 construct: host or cells: CHO-K1 cells
# T6 sequence (P21917 with tags, fused parts or gaps DEL265-296): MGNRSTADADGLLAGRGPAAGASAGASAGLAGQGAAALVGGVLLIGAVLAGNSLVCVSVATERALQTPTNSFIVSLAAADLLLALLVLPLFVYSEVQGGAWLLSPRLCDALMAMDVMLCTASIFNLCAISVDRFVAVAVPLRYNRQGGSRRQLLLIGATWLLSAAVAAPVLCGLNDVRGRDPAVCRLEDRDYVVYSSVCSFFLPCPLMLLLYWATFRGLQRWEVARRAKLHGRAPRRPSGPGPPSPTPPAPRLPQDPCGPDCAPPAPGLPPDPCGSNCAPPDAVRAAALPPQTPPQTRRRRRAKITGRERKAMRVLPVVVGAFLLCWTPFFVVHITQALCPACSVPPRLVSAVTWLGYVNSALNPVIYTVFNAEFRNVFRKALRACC
# [2] = target: Gamma-aminobutyric acid GABAB1A (Homo sapiens, UniProt Q9UBS5); assay: radioligand binding (Table S2); conditions: read-out: % Inhibition @ 10 µM
# Gamma-aminobutyric acid GABAB1A, sequence (Q9UBS5 15-961 limits assumed): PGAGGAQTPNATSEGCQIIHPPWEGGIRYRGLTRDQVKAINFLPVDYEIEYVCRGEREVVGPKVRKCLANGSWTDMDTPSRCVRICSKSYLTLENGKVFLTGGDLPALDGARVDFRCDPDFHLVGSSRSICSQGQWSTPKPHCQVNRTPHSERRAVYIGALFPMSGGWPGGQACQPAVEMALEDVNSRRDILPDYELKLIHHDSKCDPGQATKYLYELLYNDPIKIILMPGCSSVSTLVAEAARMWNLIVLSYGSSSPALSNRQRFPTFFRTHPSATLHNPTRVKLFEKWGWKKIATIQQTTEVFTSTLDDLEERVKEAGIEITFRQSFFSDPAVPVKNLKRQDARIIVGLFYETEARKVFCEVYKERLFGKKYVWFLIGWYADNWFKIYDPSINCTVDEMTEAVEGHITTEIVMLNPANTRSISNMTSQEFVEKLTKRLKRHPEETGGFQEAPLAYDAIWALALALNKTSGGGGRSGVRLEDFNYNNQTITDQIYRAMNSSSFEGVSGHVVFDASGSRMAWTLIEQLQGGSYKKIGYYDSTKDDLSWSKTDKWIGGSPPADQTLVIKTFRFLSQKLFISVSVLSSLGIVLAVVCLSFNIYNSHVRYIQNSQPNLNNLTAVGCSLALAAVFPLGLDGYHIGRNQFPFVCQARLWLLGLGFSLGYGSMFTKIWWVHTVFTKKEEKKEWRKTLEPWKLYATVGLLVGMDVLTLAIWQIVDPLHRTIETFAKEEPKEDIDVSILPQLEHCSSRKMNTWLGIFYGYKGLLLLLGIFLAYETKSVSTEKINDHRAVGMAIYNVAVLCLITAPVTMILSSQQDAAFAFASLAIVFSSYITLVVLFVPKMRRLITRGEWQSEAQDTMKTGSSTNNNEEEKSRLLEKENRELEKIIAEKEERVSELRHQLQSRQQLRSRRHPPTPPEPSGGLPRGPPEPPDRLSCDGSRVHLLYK
# Serotonin 5-HT1A = target: T7, Serotonin 5-HT1A (Homo sapiens, UniProt P08908); assay: radioligand binding (Table S2); conditions: [3H] 8-OH-DPAT, Human recombinant HEK-293 cells
# T7 construct: host or cells: HEK-293 cells
# Muscarinic M2 = Muscarinic M2 (Homo sapiens, UniProt P08172); assay: radioligand binding (Table S2); conditions: read-out: % Inhibition @ 10 µM
# PDGFRα kinase = target: T8, PDGFRα kinase (Homo sapiens, UniProt P16234); assay: enzyme assay (Table S2); assay type: biochemical; conditions: ATP + Ulight-TK peptide (100 nM), LANCE
# T8 construct: Eurofins (assay provider)
# Vasopressin V1a = target: T9, Vasopressin V1a (Homo sapiens, UniProt P37288); assay: functional assay, intracellular [Ca2+], CHO cells (Table S2); assay type: cell-based; conditions: AVP (10 nM)
# T9 construct: host or cells: CHO cells
# T9 sequence (P37288 whole entry): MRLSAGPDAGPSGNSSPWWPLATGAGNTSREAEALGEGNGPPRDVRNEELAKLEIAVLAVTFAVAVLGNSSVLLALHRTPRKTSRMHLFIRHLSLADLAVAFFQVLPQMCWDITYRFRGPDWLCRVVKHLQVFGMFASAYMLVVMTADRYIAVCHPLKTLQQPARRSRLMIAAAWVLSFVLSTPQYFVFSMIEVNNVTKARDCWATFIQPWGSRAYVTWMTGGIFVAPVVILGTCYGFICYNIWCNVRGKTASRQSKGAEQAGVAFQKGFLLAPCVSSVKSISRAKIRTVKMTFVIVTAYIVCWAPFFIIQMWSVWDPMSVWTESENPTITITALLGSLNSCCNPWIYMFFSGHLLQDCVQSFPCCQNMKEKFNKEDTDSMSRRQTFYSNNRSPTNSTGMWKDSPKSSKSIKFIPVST
# [3] = target: T10, Corticotropin-releasing hormone receptor CRF1 (Homo sapiens, UniProt P34998); assay: radioligand binding (Table S2); conditions: [125I] Sauvagine, Human recombinant CHO cells
# T10 construct: host or cells: CHO cells
# T10 sequence (P34998 24-415): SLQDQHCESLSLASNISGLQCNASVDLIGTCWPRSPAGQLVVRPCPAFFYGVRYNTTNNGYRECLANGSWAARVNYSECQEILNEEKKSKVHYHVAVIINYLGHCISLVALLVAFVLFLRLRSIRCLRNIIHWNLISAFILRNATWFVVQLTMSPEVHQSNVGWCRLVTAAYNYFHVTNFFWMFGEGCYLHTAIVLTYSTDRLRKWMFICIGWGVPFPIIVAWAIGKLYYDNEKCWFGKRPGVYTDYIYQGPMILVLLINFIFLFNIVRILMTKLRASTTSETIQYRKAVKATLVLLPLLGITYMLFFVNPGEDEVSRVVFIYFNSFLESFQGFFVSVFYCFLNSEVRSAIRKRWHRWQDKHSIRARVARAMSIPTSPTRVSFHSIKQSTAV
# Serotonin 5-HT4 e = target: T11, Serotonin 5-HT4 e (Homo sapiens, UniProt Q13639); assay: radioligand binding (Table S2); conditions: [3H] GR 113808, Human recombinant CHO cells
# T11 construct: host or cells: CHO cells
# T11 sequence (Q13639 1-378 isoform Q13639-5): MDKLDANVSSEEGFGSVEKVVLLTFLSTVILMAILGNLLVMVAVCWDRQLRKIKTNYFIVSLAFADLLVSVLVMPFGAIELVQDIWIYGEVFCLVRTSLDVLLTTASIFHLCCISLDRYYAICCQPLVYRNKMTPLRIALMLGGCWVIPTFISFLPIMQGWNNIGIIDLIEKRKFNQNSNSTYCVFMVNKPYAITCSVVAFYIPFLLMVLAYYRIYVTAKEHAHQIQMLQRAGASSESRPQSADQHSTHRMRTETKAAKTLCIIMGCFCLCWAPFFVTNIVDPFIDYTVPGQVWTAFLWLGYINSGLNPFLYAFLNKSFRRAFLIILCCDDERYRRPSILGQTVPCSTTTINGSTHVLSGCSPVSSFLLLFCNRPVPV
# Neurokinin NK2 = target: T12, Neurokinin NK2 (Homo sapiens, UniProt P21452); assay: radioligand binding (Table S2); conditions: [125I] NKA, Human recombinant CHO cells
# T12 construct: host or cells: CHO cells
# T12 sequence (P21452 1-398): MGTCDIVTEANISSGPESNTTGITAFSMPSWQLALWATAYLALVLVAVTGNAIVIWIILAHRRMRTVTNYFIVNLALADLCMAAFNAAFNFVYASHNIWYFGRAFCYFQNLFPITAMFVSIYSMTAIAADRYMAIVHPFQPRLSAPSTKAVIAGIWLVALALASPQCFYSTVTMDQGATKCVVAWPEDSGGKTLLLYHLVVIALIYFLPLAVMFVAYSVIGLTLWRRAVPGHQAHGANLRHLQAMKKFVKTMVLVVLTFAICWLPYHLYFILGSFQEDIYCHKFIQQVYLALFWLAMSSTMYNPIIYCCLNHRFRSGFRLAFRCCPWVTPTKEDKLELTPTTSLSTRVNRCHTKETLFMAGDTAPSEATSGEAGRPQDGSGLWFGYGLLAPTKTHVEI
# Glucagon = Glucagon (Homo sapiens, UniProt P47871); assay: radioligand binding (Table S2); conditions: read-out: % Inhibition @ 10 µM
# Glucagon, sequence (P47871 26-477): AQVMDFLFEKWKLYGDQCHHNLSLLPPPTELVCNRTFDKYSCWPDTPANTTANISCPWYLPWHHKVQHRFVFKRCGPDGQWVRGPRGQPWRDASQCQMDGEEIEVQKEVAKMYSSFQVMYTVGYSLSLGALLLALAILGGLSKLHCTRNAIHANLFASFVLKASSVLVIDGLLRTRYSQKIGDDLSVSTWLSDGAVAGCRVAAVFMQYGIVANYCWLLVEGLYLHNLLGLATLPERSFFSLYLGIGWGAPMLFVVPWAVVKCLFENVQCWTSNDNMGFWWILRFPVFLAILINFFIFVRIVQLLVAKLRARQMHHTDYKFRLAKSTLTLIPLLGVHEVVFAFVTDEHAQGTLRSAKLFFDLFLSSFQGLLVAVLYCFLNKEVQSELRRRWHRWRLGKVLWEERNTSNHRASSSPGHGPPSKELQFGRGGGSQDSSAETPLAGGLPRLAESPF
# PKCε = target: T13, PKCε (Homo sapiens, UniProt Q02156); assay: enzyme assay (Table S2); assay type: biochemical; conditions: HTRF
# T13 construct: host or cells: insect cells
# [4] = test system: Potassium channel (Ca activated) SKCa channel; assay: radioligand binding (Table S2); conditions: [125I] Apamin, Rat cerebral cortex
# Purinergic receptor P2Y = assay: radioligand binding (Table S2); conditions: [35S] dATPαS, Rat cerebral cortex
# Galanin GAL2 = target: T14, Galanin GAL2 (Homo sapiens, UniProt O43603); assay: radioligand binding (Table S2); conditions: [125I] Galanin, Human recombinant CHO cells
# T14 construct: host or cells: CHO cells
# T14 sequence (O43603 whole entry): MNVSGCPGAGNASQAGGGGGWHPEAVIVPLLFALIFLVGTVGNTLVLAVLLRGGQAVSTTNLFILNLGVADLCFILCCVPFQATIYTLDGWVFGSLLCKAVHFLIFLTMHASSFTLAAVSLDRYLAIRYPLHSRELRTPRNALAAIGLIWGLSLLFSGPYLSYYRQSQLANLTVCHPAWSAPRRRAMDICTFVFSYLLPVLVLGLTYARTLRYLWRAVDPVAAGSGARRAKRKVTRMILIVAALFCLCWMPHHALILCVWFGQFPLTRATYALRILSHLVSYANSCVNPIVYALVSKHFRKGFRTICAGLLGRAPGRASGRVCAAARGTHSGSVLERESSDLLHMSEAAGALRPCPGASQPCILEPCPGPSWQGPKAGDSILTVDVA
# [5] = target: T15, endogenous human B2 receptor (Homo sapiens, UniProt P30411); assay: human isolated umbilical vein contractility assay, BK-induced contraction
# T15 construct: BK-induced contraction at endogenous human B2 receptor in the umbilical vein model; from tissue; host or cells: human umbilical vein rings (donor cords after elective caesarean section)
# T15 sequence (P30411 1-391): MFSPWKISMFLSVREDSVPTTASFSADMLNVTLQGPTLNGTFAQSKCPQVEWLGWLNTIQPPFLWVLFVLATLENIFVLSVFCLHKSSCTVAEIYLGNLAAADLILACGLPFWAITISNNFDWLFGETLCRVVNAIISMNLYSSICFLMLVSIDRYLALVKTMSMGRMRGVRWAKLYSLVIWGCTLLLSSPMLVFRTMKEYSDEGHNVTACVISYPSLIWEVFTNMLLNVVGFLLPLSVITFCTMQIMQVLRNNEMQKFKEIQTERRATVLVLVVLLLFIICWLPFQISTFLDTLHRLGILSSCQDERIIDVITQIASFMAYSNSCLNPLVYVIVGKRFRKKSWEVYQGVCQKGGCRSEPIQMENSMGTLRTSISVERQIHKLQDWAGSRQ
# [6] = test system: Chloride Cl- channel (GABA-gated); assay: radioligand binding (Table S2); conditions: [35S] TBPS, Rat cerebral cortex
# Somatostatin sst1, sequence (P30872 whole entry): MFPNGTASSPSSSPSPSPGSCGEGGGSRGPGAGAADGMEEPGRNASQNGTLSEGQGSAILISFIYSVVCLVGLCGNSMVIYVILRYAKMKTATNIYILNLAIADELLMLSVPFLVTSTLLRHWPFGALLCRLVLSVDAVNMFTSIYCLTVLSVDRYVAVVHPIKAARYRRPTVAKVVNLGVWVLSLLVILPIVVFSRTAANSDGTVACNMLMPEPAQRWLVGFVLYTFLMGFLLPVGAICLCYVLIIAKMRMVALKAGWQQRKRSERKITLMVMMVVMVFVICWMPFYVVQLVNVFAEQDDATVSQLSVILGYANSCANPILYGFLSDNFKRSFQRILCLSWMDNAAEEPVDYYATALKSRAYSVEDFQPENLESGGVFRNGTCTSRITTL
smiles,measurement,setting,value
"Cc1cc(-c2ncnn2C)c2cccc(OCc3c(Cl)cc(F)cc3[C@H](C)NC(=O)COC(F)F)c2n1 [Compound 3, (S)-N-(1-(3-chloro-5-fluoro-2-((2-methyl-4-(1-methyl-1H-1,2,4-triazol-5-yl)quinolin-8-yloxy)methyl)phenyl)ethyl)-2-(difluoromethoxy)acetamide]",inhibition at 10 µM,Somatostatin sst1,-2%
same,inhibition at 10 µM,Oxytocin,5%
same,inhibition at 10 µM,Prostanoid CRTH2,3%
same,inhibition at 10 µM,[1],21.7%
same,inhibition at 10 µM,Endothelin ETB,7.2%
same,inhibition at 10 µM,Dopamine D2S,-2.7%
same,inhibition at 10 µM,Adrenergic β2,3%
same,inhibition at 10 µM,Dopamine D4.2,2%
same,inhibition at 10 µM,[2],8%
same,inhibition at 10 µM,Serotonin 5-HT1A,-4%
same,inhibition at 10 µM,Muscarinic M2,-12.4%
same,inhibition at 10 µM,PDGFRα kinase,-2.6%
same,IC50,"Vasopressin V1a; read-out: IC50 (µM), functional antagonism",9.1 µM
same,Kb,"Vasopressin V1a; read-out: Kb (µM), functional antagonism",0.31 µM
same,inhibition at 10 µM,"Vasopressin V1a; CHO, read-out: % inhibition of reference agonist response @ 10 µM (antagonist effect), 10 µM",51.9%
same,% Inhibition @ 10 µM,[3],74%
same,inhibition at 10 µM,[3],73.5%
same,inhibition at 10 µM,Serotonin 5-HT4 e,-0.9%
same,% Inhibition @ 10 µM,Neurokinin NK2,21%
same,inhibition at 10 µM,Neurokinin NK2,21.2%
same,inhibition at 10 µM,Glucagon,-0.6%
same,inhibition at 10 µM,PKCε,6.8%
same,% Inhibition @ 10 µM,[4],6.3%
same,% Inhibition @ 10 µM,Purinergic receptor P2Y,-4.3%
same,inhibition at 10 µM,Galanin GAL2,6.2%
same,Kb,[5],0.214 nM
same,type of antagonism of BK,"[5]; BK concentration-effect curves, Emax",competitive
same,pA2,"[5]; Schild plot, Pharm/PCS, ± S.E.M. where given",9.67 ± 0.42
same,Schild plot slope,"[5]; Schild regression, Pharm/PCS, ± S.E.M. where given",−0.76
same,Maximal BK-induced response in absolute force units ± S.E.M.,"[5]; antagonist 1 nM, vehicle for Compound 3 1.52 ± 0.20",1.75 ± 0.32 grams-weight
same,Maximal BK-induced response in absolute force units ± S.E.M.,"[5]; antagonist 10 nM, vehicle: Icatibant 1.90, Compound 1 […], Compound 2 2.25, Compound 3 1.52",2.29 ± 0.24 grams-weight
same,Maximal BK-induced response in absolute force units ± S.E.M.,"[5]; antagonist 100 nM, vehicle: Icatibant 1.90, Compound 1 […], Compound 2 2.25, Compound 3 1.52",2.42 ± 0.36 grams-weight
same,Maximal BK-induced response in absolute force units ± S.E.M.,"[5]; antagonist 1 μM, vehicle: Icatibant 1.90, Compound 1 […], Compound 2 2.25, Compound 3 1.52",1.25 ± 0.14 grams-weight
same,pA2 value converted into nM,[5]; potency from pA2,0.21 nM
same,% Inhibition @ 10 µM,[6],32.9%
